Counter-ions that a name gives are not always drawn.
Tests used:
NCI-H2122 = test: fitted bottom plateau of viability curve, % of DMSO control; higher = less maximal inhibition; extreme values may be limits of the assay
Experimental: (§1)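 CellTiter-Glo proliferation assay in KRAS G12C mutant NCI-H2122 (72 h), SW837 (144 h) and NCI-H358 cells in 384-well plates. Monotherapy dose response was fitted with a four-parameter curve after normalisation to DMSO controls (% of control, PoC). IC50 is the relative IC50, averaged over replicates. Bottom is the fitted lower plateau in %PoC; Max.Conc. is the top dose tested.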

SW837 = test: as above
Experimental: as §1

Structure (SMILES)	fitted bottom plateau of viability curve (NCI-H2122) [%]	fitted bottom plateau of viability curve (SW837) [%]
O=C(O)CCCCC(CCSCc1ccccc1)SCc1ccccc1 (stereo not given) [CPI-613] (top concentration tested 10000 nM)	93.6	89.5
CC[C@H](C)C(=O)O[C@H]1C[C@@H](C)C=C2C=C[C@H](C)[C@H](CC[C@@H]3C[C@@H](O)CC(=O)O3)[C@H]21 [Lovastatin] (top concentration tested 10000 nM)	56.1	83.6
CCCCCOC(=O)Nc1nc(=O)n([C@@H]2O[C@H](C)[C@@H](O)[C@H]2O)cc1F [Capecitabin] (top concentration tested 50000 nM)	75.7	101
CCCC(CCC)C(=O)O [Valproic acid] (top concentration tested 10000 nM)	72.1	92.8
CC(O)(CS(=O)(=O)c1ccc(F)cc1)C(=O)Nc1ccc(C#N)c(C(F)(F)F)c1 (stereo not given) [Bicalutamide] (top concentration tested 10000 nM)	71.7	77.3
Cn1nnc2c(C(N)=O)ncn2c1=O [Temozolomide] (top concentration tested 50000 nM)	83.2	93.2
O=C(O)C1(C(=O)O)CCC1.[NH2-].[NH2-].[Pt+2] [Carboplatin] (top concentration tested 10000 nM)	63.4	88.3
CN(C)C(=N)NC(=N)N [Metformin] (top concentration tested 50000 nM)	76.5	97.5
CC(C)Nc1cc(-c2c[nH]c(C(=O)N[C@H](CO)c3cccc(Cl)c3)c2)c(Cl)cn1 [Ulixertinib] (top concentration tested 99.921 nM)	64.5	97.1
Cc1cc(Nc2nc(N[C@@H](C)c3ncc(F)cn3)ncc2Cl)[nH]n1 [AZD-1480] (top concentration tested 10000 nM)	67	87.9
CN[C@@H](C)C(=O)N[C@H](C(=O)N1CCC[C@H]1c1nc(C(=O)c2ccc(F)cc2)cs1)C1CCCCC1 [LCL161] (top concentration tested 10000 nM)	69.3	86.1
CC(C)(C)c1nc(-c2cccc(NS(=O)(=O)c3c(F)cccc3F)c2F)c(-c2ccnc(N)n2)s1 [Dabrafenib] (top concentration tested 1000.1 nM)	73.8	93.1
Cc1ccc(Nc2nccc(N(C)c3ccc4c(C)n(C)nc4c3)n2)cc1S(N)(=O)=O [Pazopanib] (top concentration tested 10000 nM)	80.9	91.9
NC(=O)c1ccc(-c2nc(-c3ccccn3)c(-c3ccc4c(c3)OCO4)[nH]2)cc1 (top concentration tested 9999.9 nM)	96.2	96.5
Cc1ncc([N+](=O)[O-])n1CCOC(=O)NC(Nc1ncccn1)C(Cl)(Cl)Cl (stereo not given) [Apcin] (top concentration tested 10000 nM)	83.2	95.3
CNC(=O)c1cc(Oc2ccc(NC(=O)Nc3ccc(Cl)c(C(F)(F)F)c3)c(F)c2)ccn1 [Regorafenib] (top concentration tested 999.95 nM)	82.1	92.7
CC(C)(C(=O)NCC(F)(F)C(F)(F)F)C(=O)N[C@@H]1C(=O)Nc2ccccc2-c2ccccc21 (top concentration tested 9999.9 nM)	77.8	98.6
N.N.[Cl][Pt][Cl] [Cisplatin] (top concentration tested 10000 nM)	75.2	88.2
CS(=O)(=O)c1ccc(C(=O)Nc2ccc(Cl)c(-c3ccccn3)c2)c(Cl)c1 [Vismodegib] (top concentration tested 10000 nM)	91.1	103
CC(C)(C)c1cc(NC(=O)Nc2ccc(-c3cn4c(n3)sc3cc(OCCN5CCOCC5)ccc34)cc2)no1 [Quizartinib] (top concentration tested 1000.1 nM)	79.3	94.1

Structure (SMILES)	fitted bottom plateau of viability curve (NCI-H2122) [%]	fitted bottom plateau of viability curve (SW837) [%]
C[C@@H]1CCN(C(=O)CC#N)C[C@@H]1N(C)c1ncnc2[nH]ccc12 [Tofacitinib citrate] (top concentration tested 10000 nM)	63	99
Nc1nc(Nc2ccc3c(c2)CC[C@@H](N2CCCC2)CC3)nn1-c1cc2c(nn1)-c1ccccc1CCC2 [Bemcentinib] (top concentration tested 1000.1 nM)	70.6	84.4
CN(C)c1ccccc1CN1CCCN(Cc2ccccc2N(C)C)C1c1ccncc1 [GANT61] (top concentration tested 10000 nM)	70.7	83.1
On1ncc2cc(CCc3nn[nH]n3)ccc21 (top concentration tested 10000 nM)	73.1	88.1
Cc1ccc(NC(=O)c2ccc(CN3CCN(C)CC3)cc2)cc1Nc1nccc(-c2cccnc2)n1 [Imatinib] (top concentration tested 1000 nM)	71	95.9
C[C@]12CC[C@@H]3c4ccc(O)cc4C[C@@H](CCCCCCCCC[S+]([O-])CCCC(F)(F)C(F)(F)F)[C@H]3[C@@H]1CC[C@@H]2O (stereo not given in full) [Fulvestrant] (top concentration tested 1000 nM)	75.9	91.1
C[C@H](CS)C(=O)N1CCC[C@H]1C(=O)O [Captopril] (top concentration tested 1000 nM)	65.1	91.7
C[C@H](Cc1ccc(O)c(O)c1)[C@@H](C)Cc1ccc(O)c(O)c1 [Masoprocol] (top concentration tested 9999.8 nM)	71.4	86.2
C=C(c1ccc(C(=O)O)cc1)c1cc2c(cc1C)C(C)(C)CCC2(C)C [Bexarotene] (top concentration tested 10000 nM)	89.9	96.9
Nc1nc(F)nc2c1ncn2[C@@H]1O[C@H](CO)[C@@H](O)[C@@H]1O [Fludarabine] (top concentration tested 9999.9 nM)	71	59.4
C[C@@H]1C[C@H]2[C@@H]3CCC4=CC(=O)C=C[C@]4(C)[C@@]3(F)[C@@H](O)C[C@]2(C)[C@@]1(O)C(=O)CO [Dexamethasone] (top concentration tested 10000 nM)	58.2	82
Cc1ccc(NC(=O)c2ccc(CN3CCN(C)CC3)cc2)cc1Nc1nc(-c2cccnc2)cs1 [Masitinib] (top concentration tested 1000.1 nM)	79.5	95.6
N[C@H]1CC[C@H](N[C@@H]2C[C@H]2c2ccccc2)CC1 [ORY-1001] (top concentration tested 49.848 nM)	68.1	90.5
Nc1cccc2c1CN(C1CCC(=O)NC1=O)C2=O (stereo not given) [Lenalidomide] (top concentration tested 10000 nM)	84.3	89.9
COc1cc2c(Oc3ccc4[nH]c(C)cc4c3F)ncnc2cc1OCCCN1CCCC1 [Cediranib] (top concentration tested 100.11 nM)	70	90.6
CN1CCN(c2ccc(-c3cccc(CN4CCOCC4)c3)cc2NC(=O)c2c[nH]c(=O)cc2C(F)(F)F)CC1 [OICR-9429] (top concentration tested 10000 nM)	62.6	95.4
CNC(=O)c1ccc(N2C(=S)N(c3ccc(C#N)c(C(F)(F)F)c3)C(=O)C2(C)C)cc1F [Enzalutamide] (top concentration tested 10000 nM)	83.9	93.1
CO[C@H]1C[C@@H]2CC[C@@H](C)[C@@](O)(O2)C(=O)C(=O)N2CCCC[C@H]2C(=O)O[C@H]([C@H](C)C[C@@H]2CC[C@@H](OCCO)[C@H](OC)C2)CC(=O)[C@H](C)/C=C(\C)[C@@H](O)[C@@H](OC)C(=O)[C@H](C)C[C@H](C)/C=C/C=C/C=C/1C [Everolimus] (top concentration tested 99.976 nM)	76.4	95.4
NC(=O)Nc1cc(-c2cccc(F)c2)sc1C(=O)N[C@H]1CCCNC1 [AZD-7762] (top concentration tested 99.882 nM)	62.8	89.7
N#CC[C@H](C1CCCC1)n1cc(-c2ncnc3[nH]ccc23)cn1 [Ruxolitinib] (top concentration tested 9999.9 nM)	73.3	88.3
